Reference: patent US20240287074A1, “SALTS AND CRYSTALS” (Kinoxis Therapeutics Pty Ltd, priority 2020, published 2024)
Entries after “also recorded” stand apart in the source; their conditions may differ. Where a name gives a salt, the structure may show the parent alone.

Key:
Format in all cases: physicochemical
[1] = Hydration studies in methanol/water mixtures; details: MeOH/water mixtures, water activity 0.2, 0.6, 0.8, about 24 hours
Experimental: The following procedure was used during the hydration studies: • Approximately 20 mg of phosphate form 1 (Example 3) and L-tartrate form 1 (Example 5) were weighed into 2 mL glass vials. • Selected methanol/deionized water mixtures (see Table 5) were added to each sample in 100 μL aliquots until a mobile slurry was observed. • The slurries were agitated at ambient temperature for about 24 hours. • The slurries were collected and filtered via centrifugation. • The isolated solids were analyzed by XRPD. • The pH of the mother liquors were recorded.

[2] = Primary salt screen: XRPD pattern after drying and after 40° C./75% RH
Experimental: The following procedure was used: • Approximately 30 mg of 1-methyl-1,4,5,10-tetrahydropyrazolo[3,4-b][1,5]benzodiazepine freebase was weighed into 5×1.5 mL glass vials. • 300 μL of selected solvent system was added to each vial to form a mobile slurry, and a beige slurry was observed. • 1.05 (or 0.525 for the hemi experiments) equivalents of acid counterion (see Table 1) was added to each sample and initial observations were recorded. • The samples were temperature cycled between ambient and 40° C. in 4-hour cycles for about 72 hours. • The samples were collected, and observations made. • Samples in which solids were observed were filtered via centrifugation and the solids were loaded onto a multi-well XRPD plate and analyzed by XRPD. • Samples in which no solids were observed were uncapped and left undisturbed to allow evaporation at ambient temperature.

[3] = Dynamic / gravimetric vapour sorption (DVS/GVS) hygroscopicity

Cn1ncc2c1Nc1ccccc1NC2 [Phosphate form 1, phosphoric acid addition salt of 1-methyl-1,4,5,10-tetrahydropyrazolo[3,4-b][1,5]benzodiazepine]
change in XRPD pattern [1]: No change in XRPD pattern | hydrate formation [1]: Hydrate formation was not observed; also recorded: No evidence | thermal stability and hygroscopicity ([2]; conclusion of salt screen): acceptable thermal stability and hygroscopicity | Post-Drying (XRPD pattern) ([2]; oven at 40° C. for about 24 hours, listed as Phosphate pattern 1): Pattern 1 | Comments (stability) ([2]; salt screen summary): Good | Post 40° C./75% RH (XRPD pattern) ([2]; stability chamber at 40° C./75% RH for about 24 hours, listed as Phosphate pattern 1): Pattern 1 | change in form by XRPD post-DVS analysis [3]: No evidence of form changes or hydrate formation | hygroscopicity ([3]; DVS, 25° C.): slightly hygroscopic | DVS mass increase ([3]; at 90% RH): about 0.4%
